# Data from PMC8121805, “Discovery of first-in-class inhibitors of ASH1L histone methyltransferase with anti-leukemic activity” (Nature Communications, 2021).
# Values joined by “and” are separate entries in the source; they are usually repeats but may differ in a detail not shown here. Equal entries are not always repeated.
# Assays:
# EZH2 = EZH2 (Homo sapiens, UniProt Q15910); test: HMT selectivity panel; conditions: EZH2, 50 µM compound
# Method: (§1) mM DTT and 0.01% Triton X-100 was used in experiments containing core histone.
# experiments containing nucleosome.
# G9a 5 core histone 0.05 mg/mL 1
# GLP 5 core histone 0.05 mg/mL 1
# G9a = G9a (Homo sapiens, UniProt Q96KQ7); test: HMT selectivity panel; conditions: 50 µM compound
# Method: as §1
# experiments containing nucleosome.
# G9a 5 core histone 0.05 mg/mL 1
# GLP 5 core histone 0.05 mg/mL 1
# SET7/9 = SET7/9 (Homo sapiens, UniProt Q8WTS6); test: HMT selectivity panel; conditions: SET7/9, 50 µM compound
# Description: (§2) Assay conditions for selectivity experiments with a panel of histone
# as §1
# MLL1 = MLL1 (Homo sapiens, UniProt Q03164); test: HMT selectivity panel; conditions: MLL1, 50 µM compound
# Description: as §1
# [1] = Effect on normal hematopoiesis: complete blood counts and blood parameters
# Method: At the end point of the experiment blood samples were collected, processed and analyzed for complete blood counts (CBC) and to assess populations of myeloid (CD11b + /Gr-1 + ), B- (B220 + /CD19 + ), and T- (CD3 + ) cells using flow cytometry. […] The analysis of CBC and other blood parameters was performed by the ULAM Animal Diagnostic Laboratory using Element HT5 (HESKA).
# (a) Analysis of blood cell counts in
# blood cells, RBC – red blood cells, NEU – neutrophiles, LYM – lymphocytes. MONO –
# monocytes, EOS – eosinophils, BAS - basophils, PLT - platelets) and other blood parameters (Hgb
# – Hemoglobin, HCT- Hematocrit, MCV – Mean corpuscular volume, MCH - Mean corpuscular
# hemoglobin, MCHC - Mean corpuscular hemoglobin concentration, RDW – Red cell distribution
# (1 picture or pasted object on this page, not shown here)
# PRMT3 = PRMT3 (Homo sapiens, UniProt O60678); test: HMT selectivity panel; conditions: PRMT3, 50 µM compound
# Description: as §1
# PRDM9 = PRDM9 (Homo sapiens, UniProt Q9NQV7); test: HMT selectivity panel; conditions: PRDM9, 50 µM compound
# Description: as §1
# SMYD1 = SMYD1 (Homo sapiens, UniProt Q8NB12); test: HMT selectivity panel; conditions: SMYD1, 50 µM compound
# Description: as §2, §1
# K562 cells [2] = test: Annexin V apoptosis assay (flow cytometry); format: cell-based, human; conditions: for K562 % Annexin V/PI+ cells: 7 days
# MLL4 = test: HMT selectivity panel; conditions: MLL4, 50 µM compound
# Description: as §1
# [3] = tested on: panel of 20 histone methyltransferases; test: Panel of 20 histone methyltransferases as a whole; conditions: 50 µM
# Method: as §1
# experiments containing nucleosome.
# G9a 5 core histone 0.05 mg/mL 1
# GLP 5 core histone 0.05 mg/mL 1
# K562 cells [4] = test: Flow cytometry of CD11B expression (differentiation); format: cell-based, human; conditions: for K562 % CD11B+ cells: 7 days
# Method: In addition, 1 × 10^5 cells per sample were stained with Zombie Aqua™ dye (1:100 dilution) for 15 min using the Zombie Aqua™ Fixable Viability Kit (Zombie Aqua™ Fixable Viability Kit, Biolegend®) […] and then for 30 min with an anti-CD11B-PE antibody (982606, ICRF44, Biolegend®) or anti-CD11B-Pacific Blue (101224, BD BioLegend) antibody at 1:50 dilution, according to the No-wash Sequential Staining Protocol described by the manufacturer (BioLegend, Zombie Aqua Fixable Viability Kit). Cells were washed twice with 500 µL PBS containing 1% FBS and resuspended in 200 µL PBS with 1% FBS.
# [5] = Body weight during treatment in the MV4;11 model
# Method: Briefly, the 8- to 10-week old female NSG mice (Jackson Laboratory) were intravenously injected with 5 × 10^6 luciferase-expressing MV4;11 cells (received from Dr. Thomas Look, Dana Farber Cancer Institute). […] For imaging, mice were kept anesthetized with isoflurane, and 50 mg/kg luciferin (E1603, Promega) was administered by intraperitoneal injection. Photonic emission was imaged using the in Vivo Imaging System BLI (IVIS, 200) with total imaging time of 10 s for each mouse.
# Measurements are reference to the values obtained at the first day of treatment, which were set as
# [6] = Fig S12a, individual mice, AS-99 group
# Sequence of EZH2 (Q15910 whole entry, species assumed): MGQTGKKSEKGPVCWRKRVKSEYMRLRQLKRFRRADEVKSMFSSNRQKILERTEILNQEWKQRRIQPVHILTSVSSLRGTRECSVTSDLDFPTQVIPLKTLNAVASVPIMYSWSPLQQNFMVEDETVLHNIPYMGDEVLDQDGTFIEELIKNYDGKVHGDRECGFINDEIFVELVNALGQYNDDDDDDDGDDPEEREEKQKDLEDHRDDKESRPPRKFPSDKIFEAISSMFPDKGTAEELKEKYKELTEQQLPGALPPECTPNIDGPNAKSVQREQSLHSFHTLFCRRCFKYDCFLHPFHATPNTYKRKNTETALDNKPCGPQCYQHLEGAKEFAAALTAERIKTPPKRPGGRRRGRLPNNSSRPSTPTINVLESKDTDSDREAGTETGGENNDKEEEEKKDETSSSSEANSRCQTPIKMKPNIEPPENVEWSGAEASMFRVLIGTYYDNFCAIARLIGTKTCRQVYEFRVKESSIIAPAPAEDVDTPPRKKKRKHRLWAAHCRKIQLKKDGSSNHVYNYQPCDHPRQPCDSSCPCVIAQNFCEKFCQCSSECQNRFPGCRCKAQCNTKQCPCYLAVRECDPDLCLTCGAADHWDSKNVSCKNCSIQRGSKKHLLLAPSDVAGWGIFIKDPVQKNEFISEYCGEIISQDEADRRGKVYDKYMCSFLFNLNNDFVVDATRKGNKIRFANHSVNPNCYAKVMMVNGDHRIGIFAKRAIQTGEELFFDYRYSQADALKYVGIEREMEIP
# Sequence of EZH2 (O75530 whole entry partner, species assumed): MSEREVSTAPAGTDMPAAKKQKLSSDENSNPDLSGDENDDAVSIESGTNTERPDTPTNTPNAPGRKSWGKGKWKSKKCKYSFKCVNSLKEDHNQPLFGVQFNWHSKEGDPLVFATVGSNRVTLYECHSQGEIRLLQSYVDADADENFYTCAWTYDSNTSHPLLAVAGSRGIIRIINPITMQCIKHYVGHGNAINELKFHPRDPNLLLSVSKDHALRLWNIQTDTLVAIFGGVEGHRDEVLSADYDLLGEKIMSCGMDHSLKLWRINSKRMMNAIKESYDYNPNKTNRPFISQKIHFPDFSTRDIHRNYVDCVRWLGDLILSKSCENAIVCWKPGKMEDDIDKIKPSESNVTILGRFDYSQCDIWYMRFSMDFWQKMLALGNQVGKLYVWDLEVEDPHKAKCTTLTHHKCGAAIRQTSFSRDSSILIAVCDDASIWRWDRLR
# Sequence of EZH2 (Q15022 whole entry partner, species assumed): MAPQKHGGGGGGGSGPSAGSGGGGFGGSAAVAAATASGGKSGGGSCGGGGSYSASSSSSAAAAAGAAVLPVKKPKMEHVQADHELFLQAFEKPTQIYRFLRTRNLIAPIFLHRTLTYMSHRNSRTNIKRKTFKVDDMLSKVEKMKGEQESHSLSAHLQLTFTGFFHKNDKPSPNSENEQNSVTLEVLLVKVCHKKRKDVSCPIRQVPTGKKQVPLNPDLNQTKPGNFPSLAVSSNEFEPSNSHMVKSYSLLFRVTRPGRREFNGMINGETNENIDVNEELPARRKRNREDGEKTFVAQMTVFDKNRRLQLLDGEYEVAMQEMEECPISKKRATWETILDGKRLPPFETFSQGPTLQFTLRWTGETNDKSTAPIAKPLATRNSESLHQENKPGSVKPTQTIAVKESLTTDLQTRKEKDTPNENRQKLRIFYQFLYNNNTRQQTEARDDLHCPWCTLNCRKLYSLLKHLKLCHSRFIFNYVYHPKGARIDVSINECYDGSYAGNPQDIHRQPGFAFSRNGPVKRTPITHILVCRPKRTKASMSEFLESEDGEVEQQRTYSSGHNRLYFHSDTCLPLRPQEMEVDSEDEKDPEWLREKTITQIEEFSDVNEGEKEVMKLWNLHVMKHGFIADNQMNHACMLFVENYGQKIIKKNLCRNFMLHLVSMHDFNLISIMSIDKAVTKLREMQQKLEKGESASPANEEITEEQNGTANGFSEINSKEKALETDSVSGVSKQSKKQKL
# Sequence of SET7/9 (Q8WTS6 whole entry, species assumed): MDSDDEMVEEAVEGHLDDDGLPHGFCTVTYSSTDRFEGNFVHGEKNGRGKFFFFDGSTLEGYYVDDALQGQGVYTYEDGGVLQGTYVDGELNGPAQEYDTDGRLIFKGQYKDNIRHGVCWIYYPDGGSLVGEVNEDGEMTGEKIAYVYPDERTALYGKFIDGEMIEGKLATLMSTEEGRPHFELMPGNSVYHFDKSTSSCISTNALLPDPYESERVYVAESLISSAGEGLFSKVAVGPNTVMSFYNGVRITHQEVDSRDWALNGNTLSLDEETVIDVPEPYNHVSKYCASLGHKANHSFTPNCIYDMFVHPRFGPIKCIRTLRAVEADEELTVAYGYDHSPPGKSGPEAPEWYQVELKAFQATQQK
# Sequence of G9a (Q96KQ7 whole entry, species assumed): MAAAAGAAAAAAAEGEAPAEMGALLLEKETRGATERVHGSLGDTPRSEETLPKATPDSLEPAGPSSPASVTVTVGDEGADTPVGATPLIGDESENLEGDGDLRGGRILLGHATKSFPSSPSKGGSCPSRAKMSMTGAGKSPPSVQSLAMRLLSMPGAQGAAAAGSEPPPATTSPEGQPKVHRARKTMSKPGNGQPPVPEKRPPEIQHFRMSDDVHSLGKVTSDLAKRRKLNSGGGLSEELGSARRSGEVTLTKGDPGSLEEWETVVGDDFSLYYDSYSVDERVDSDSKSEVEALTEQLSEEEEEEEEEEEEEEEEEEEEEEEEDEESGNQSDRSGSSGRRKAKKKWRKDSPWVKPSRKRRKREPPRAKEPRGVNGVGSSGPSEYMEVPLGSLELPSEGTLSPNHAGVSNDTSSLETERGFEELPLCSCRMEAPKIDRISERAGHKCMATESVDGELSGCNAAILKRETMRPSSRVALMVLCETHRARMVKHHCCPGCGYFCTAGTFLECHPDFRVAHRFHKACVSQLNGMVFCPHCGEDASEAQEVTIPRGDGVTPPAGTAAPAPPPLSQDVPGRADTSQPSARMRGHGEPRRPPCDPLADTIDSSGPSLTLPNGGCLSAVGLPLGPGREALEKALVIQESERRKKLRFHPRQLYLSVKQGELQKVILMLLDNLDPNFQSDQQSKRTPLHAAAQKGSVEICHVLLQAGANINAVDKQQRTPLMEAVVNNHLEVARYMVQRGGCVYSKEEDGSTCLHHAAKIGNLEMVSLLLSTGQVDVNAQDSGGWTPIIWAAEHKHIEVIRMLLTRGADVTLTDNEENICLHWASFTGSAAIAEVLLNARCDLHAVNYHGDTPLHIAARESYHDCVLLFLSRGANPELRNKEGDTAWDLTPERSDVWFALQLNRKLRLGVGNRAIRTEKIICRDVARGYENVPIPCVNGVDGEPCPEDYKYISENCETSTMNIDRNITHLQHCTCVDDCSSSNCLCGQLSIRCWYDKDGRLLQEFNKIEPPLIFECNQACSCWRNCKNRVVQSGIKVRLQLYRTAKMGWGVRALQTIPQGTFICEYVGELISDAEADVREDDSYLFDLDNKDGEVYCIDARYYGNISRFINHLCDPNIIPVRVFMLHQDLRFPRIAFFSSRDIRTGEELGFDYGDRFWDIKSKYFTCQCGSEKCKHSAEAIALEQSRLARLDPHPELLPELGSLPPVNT
# Sequence of PRDM9 (Q9NQV7 whole entry, species assumed): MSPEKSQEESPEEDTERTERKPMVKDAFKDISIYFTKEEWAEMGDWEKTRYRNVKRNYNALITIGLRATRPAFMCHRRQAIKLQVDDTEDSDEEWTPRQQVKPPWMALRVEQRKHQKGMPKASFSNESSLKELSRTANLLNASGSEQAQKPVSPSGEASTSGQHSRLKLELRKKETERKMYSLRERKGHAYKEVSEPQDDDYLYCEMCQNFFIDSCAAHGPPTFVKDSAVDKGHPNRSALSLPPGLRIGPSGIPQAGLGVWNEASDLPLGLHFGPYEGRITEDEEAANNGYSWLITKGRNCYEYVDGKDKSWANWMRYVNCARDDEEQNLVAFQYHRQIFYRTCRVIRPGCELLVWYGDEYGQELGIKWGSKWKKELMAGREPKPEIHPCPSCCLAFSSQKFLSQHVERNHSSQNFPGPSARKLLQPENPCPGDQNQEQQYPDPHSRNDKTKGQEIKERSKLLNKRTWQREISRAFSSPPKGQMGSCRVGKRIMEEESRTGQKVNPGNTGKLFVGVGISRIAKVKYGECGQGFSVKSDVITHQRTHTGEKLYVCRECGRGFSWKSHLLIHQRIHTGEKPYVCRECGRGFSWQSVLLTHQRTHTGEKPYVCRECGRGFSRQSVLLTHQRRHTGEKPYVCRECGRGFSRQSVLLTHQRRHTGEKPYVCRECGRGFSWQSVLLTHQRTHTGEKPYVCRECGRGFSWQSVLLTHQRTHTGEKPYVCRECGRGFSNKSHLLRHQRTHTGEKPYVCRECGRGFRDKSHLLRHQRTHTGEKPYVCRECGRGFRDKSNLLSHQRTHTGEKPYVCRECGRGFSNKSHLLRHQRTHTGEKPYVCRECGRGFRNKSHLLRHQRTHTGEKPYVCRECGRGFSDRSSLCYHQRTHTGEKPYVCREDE
# Sequence of SMYD1 (Q8NB12 whole entry, species assumed): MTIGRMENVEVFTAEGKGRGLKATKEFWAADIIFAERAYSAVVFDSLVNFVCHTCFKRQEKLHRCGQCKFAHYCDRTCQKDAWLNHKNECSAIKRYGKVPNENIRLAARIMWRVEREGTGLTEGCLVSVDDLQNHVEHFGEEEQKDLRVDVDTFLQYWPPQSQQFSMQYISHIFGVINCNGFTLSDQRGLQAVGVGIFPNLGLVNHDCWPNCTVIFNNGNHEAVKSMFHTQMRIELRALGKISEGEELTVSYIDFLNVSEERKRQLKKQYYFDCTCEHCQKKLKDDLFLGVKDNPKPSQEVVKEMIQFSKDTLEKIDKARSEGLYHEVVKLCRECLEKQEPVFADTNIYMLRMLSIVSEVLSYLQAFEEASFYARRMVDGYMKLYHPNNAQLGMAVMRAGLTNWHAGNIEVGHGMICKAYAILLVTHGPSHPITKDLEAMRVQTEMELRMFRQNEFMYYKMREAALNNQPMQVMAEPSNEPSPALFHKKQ
compound,measurement,setting,value
CN1CC(C(=O)NCc2ccc3c(-c4cccc(C(N)=S)c4)cn(C4CCN(S(=O)(=O)C(F)(F)F)CC4)c3c2)C1 [AS-99],activity at 50 µM,EZH2,101%
same,% activity,EZH2; 50 µM,119.029%
same,activity at 50 µM,G9a,90.9%
same,% activity,G9a; 50 µM,91.9579%
same,activity at 50 µM,SET7/9,81.7%
same,% activity,SET7/9; 50 µM,85.3173%
same,activity at 50 µM,MLL1,50%
same,% activity,MLL1; 50 µM,69.7738%
same,BAS,[1]; [6],0.02 x 103/uL (2×) and 0.03 x 103/uL (4×) and 0.01 x 103/uL (2×) and 0 x 103/uL
same,EOS,[1]; [6],270 µL⁻¹ and 470 µL⁻¹ and 320 µL⁻¹ and 390 µL⁻¹ and 650 µL⁻¹ and 300 µL⁻¹ and 100 µL⁻¹ and 450 µL⁻¹ and 360 µL⁻¹
same,HCT,[1]; [6],41.9% and 39.7% and 28.7% and 46% and 40.3% and 29.4% and 10.7% and 42.8% and 41.4%
same,HGB,[1]; [6],13.7 g/dL and 13.1 g/dL and 9.8 g/dL and 15.6 g/dL and 13.9 g/dL and 10.1 g/dL and 3.6 g/dL and 14.6 g/dL and 14 g/dL
same,LYM,[1]; [6],4070 µL⁻¹ and 5890 µL⁻¹ and 4140 µL⁻¹ and 5390 µL⁻¹ and 6000 µL⁻¹ and 3920 µL⁻¹ and 1230 µL⁻¹ and 6280 µL⁻¹ and 5970 µL⁻¹
same,MCH,[1]; [6],14.8 Pg and 15 Pg (2×) and 15.6 Pg (3×) and 14.9 Pg and 15.4 Pg and 16.2 Pg
same,MCHC,[1]; [6],32.8 g/dL and 33.1 g/dL and 34.1 g/dL (2×) and 33.9 g/dL and 34.4 g/dL (2×) and 34 g/dL and 33.8 g/dL
same,MCV,[1]; [6],45.2 fL (3×) and 45.4 fL and 45.8 fL and 44 fL and 43.6 fL and 45.7 fL and 48 fL
same,MONO,[1]; [6],0.17 x 103/uL and 0.23 x 103/uL (2×) and 0.12 x 103/uL and 0.28 x 103/uL (2×) and 0.11 x 103/uL and 0.05 x 103/uL and 0.2 x 103/uL
same,MPV,[1]; [6],5 fL (2×) and 5.5 fL and 5.9 fL and 5.1 fL and 5.4 fL (2×) and 5.6 fL and 4.8 fL
same,NEU,[1]; [6],970 µL⁻¹ and 1680 µL⁻¹ and 1330 µL⁻¹ and 2070 µL⁻¹ and 1910 µL⁻¹ and 1210 µL⁻¹ and 630 µL⁻¹ and 1870 µL⁻¹ and 1770 µL⁻¹
same,PLT,[1]; [6],1548 K/uL and 1435 K/uL and 1241 K/uL and 1545 K/uL and 1340 K/uL and 938 K/uL and 317 K/uL and 1303 K/uL and 1383 K/uL
same,RBC,[1]; [6],9.27 M/uL and 8.74 M/uL and 6.26 M/uL and 10.46 M/uL and 9.24 M/uL and 6.5 M/uL and 2.36 M/uL and 9.37 M/uL and 8.63 M/uL
same,RDW,[1]; [6],14.4% and 15.6% and 15.4% and 13.5% and 14.9% and 13.9% and 14.7% and 14.8% and 18.3%
same,WBC,[1]; [6],5.5 k/uL and 8.3 k/uL and 5.92 k/uL and 8.1 k/uL and 8.87 k/uL and 5.55 k/uL and 2.01 k/uL and 8.91 k/uL and 8.33 k/uL
same,blood counts and other blood parameters versus vehicle,"[1]; normal mice, 30 mg/kg, i.p., q.d., 14 days",no significant difference
same,activity at 50 µM,PRMT3,106%
same,% activity,PRMT3; 50 µM,114.852%
same,activity at 50 µM,PRDM9,96.8%
same,% activity,PRDM9; 50 µM,100.979%
same,activity at 50 µM,SMYD1,81.1%
same,% activity,SMYD1; 50 µM,68.7304%
same,apoptosis in K562 cells,K562 cells [2],not in the K562 cells
same,K562 % Annexin V/PI+ cells,K562 cells [2]; 2 uM,10.85% and 7.41% and 3.78%
same,K562 % Annexin V/PI+ cells,K562 cells [2]; 4 uM,7.07% and 5.34% and 5.33%
same,K562 % Annexin V/PI+ cells,K562 cells [2]; 6 uM,4.92% and 4.78% and 6.63%
same,K562 % Annexin V/PI+ cells,K562 cells [2]; 8 uM,5.64% and 10.26% and 7.32%
same,% activity,MLL4,79.3828% and 71.6922%
same,inhibition of the tested HMTs,[3],no significant inhibition
same,K562 % CD11B+ cells,K562 cells [4]; 2 uM,0.43% and 0.58% and 0.36%
same,K562 % CD11B+ cells,K562 cells [4]; 4 uM,0.34% and 0.52% and 0.4%
same,K562 % CD11B+ cells,K562 cells [4]; 6 uM,0.56% and 0.39% and 0.38%
same,K562 % CD11B+ cells,K562 cells [4]; 8 uM,0.73% and 0.97% and 0.76%
same,differentiation effects in K562,K562 cells [4]; control leukemia cell line,not observed
same,toxicity during the treatment period,"[5]; 30 mg/kg, i.p., q.d., 14 days",No substantial toxicity
same,body weight reduction,"[5]; after 7 days of treatment, 30 mg/kg, i.p., q.d.",~ 10%
same,normalized body weight change,[5]; days of treatment 1,100
same,normalized body weight change,[5]; days of treatment 2,95 and 98 and 97 and 96
same,normalized body weight change,[5]; days of treatment 3,94 and 98 and 96 and 99 and 95 and 102
same,normalized body weight change,[5]; days of treatment 4,95 and 96 and 97 and 100
same,normalized body weight change,[5]; days of treatment 5,95 and 89 and 93 and 87 and 100
same,normalized body weight change,[5]; days of treatment 6,90 and 100 and 94 and 87 and 93
